The values below come from ChEMBL document CHEMBL3507680, “University of Dundee, Gates Library screen for HepG2 cell viability”.

This data set can be described thus: Human HepG2 cell viability assay in 384 well format. Format: toxicity, cell-based. Set-up: dose 125 nL, time 70.5 hour; cytotoxicity at 70.5 h: concentration not given beside the values. Conditions: HepG2 cells, read-out: Inhibition.
Turning to `O=C(CSc1nccc(-c2ccc3c(c2)OCO3)n1)N1CCOCC1`, the cytotoxicity at 70.5 h is -1.22%.
For `Cc1ccc(N2CC[C@H]3OCC[C@@]3(C(=O)NC(C)C)C2)nn1` the value was 1.98%; for `COc1ccc(-c2csc3c2c(N)nc(=O)n3CC(N)=O)cc1`, -14.6%.
The value for `CCNc1ccnc(NC2CCN(S(C)(=O)=O)CC2)n1` was -14.6%; that for `COc1ccc(CN2CCCN(c3cc(C(N)=O)ccn3)CC2)cc1` was 9.62%.
For `CCS(=O)(=O)CCNC(=O)[C@@]12CNC[C@@H]1CN(C1CCCC1)C2` the value was -0.64%; for `Cn1cc(C(=O)NC[C@H]2OC[C@@H]3CCN(C4CCOCC4)C[C@@H]32)cn1`, -3.43%; for `O=C(CSc1nnc(N2CCOCC2)s1)NC(=O)Nc1ccccc1`, -4.91%.
As to `CCc1ccccc1-n1nnc(C(=O)O)c1-c1ccccn1`, the cytotoxicity at 70.5 h is -8.12%.
Regarding `COc1ccc(CC(=O)N2CCCC2c2nc(C)c(C)c(O)n2)cc1` (stereo not given), the cytotoxicity at 70.5 h was -2.14%.
The value for `CN(C)C(=O)[C@H]1C[C@@H]2CN(CCc3ccccc3)C[C@H]1O2` was -6.59%; that for `Cc1cccc(C(C(=O)N2CC(c3cccnc3)C2)N(C)C)c1` (stereo not given) was -0.966%; that for `COc1ccc(C(=O)N2C[C@@H](C)[C@@](C)(O)C2)cc1N1CCOCC1` was 2.73%.
The value for `O=C(c1ccn(-c2cccc(F)c2)n1)N1CCN(CCO)CC1` was -5.78%; that for `O=C(c1ccc(Cn2cc(Br)cn2)cc1)N1CCOCC1` was -7.67%; that for `Cc1ccc(Cl)cc1NC(=O)C1CSc2ncc(C)c(=O)n2C1` (stereo not given) was -13.9%.
Take `CC(C)c1nc(C2CCCN2CCc2ccccn2)no1` (stereo not given): the cytotoxicity at 70.5 h was -15.3%.
For `COc1ccc(C(=O)N2CC[C@](C)(O)[C@H](C)C2)cc1N1CCOCC1` the value was -8.2%; for `COCCOc1ccc(NC(=O)C2CCC2)cn1`, -7.54%.
For `Cc1ccc2cc(C(=O)N3CCCCC3c3nc[nH]n3)ccc2n1` (stereo not given) the value was 11.1%; for `CCCn1nccc1C(=O)N1CCN(C2CCc3ccccc3C2)CC1` (stereo not given), -7.89%; for `OC1CCN(c2ccccc2NCc2nc(-c3ccoc3)no2)CC1`, 36.2%.
For `O=c1[nH]c2cc3c(cc2cc1CN1CCCC1c1ccccn1)CCC3` (stereo not given) the value was 9.53%; for `Cc1nc2c(N(C)Cc3ccnn3C)nc(N)nc2n1C`, 0.962%.
For `O=C(CNCC1(O)CCCN(Cc2cccc(F)c2F)C1=O)NC1CC1` (stereo not given), the cytotoxicity at 70.5 h was -1.7%.
The value for `CC(=O)N1CC(C(=O)NCCc2ncc(C)s2)C1` was -5.34%.
For `Cc1occc1CNC(=O)C1(C)CCCN1C(=O)c1ccccc1` (stereo not given) the value was 2.74%; for `CCc1noc(C)c1C(=O)N1CCCCC1Cn1cc(C)cn1` (stereo not given), 46.7%.
The value for `CCOCCN1Cc2ncn(C)c2C(COCC2CCOCC2)C1` (stereo not given) was -7.05%.
Consider `COc1ccccc1CCN[C@@H]1c2ccccc2C2(CCNCC2)[C@H]1O`, for which the cytotoxicity at 70.5 h is -4.74%.
The value for `O=C(C1CCSCC1)N1CC[C@H]2OCC[C@@]2(COCC2CC2)C1` was -6.06%.
Turning to `Cc1ncsc1CCC(=O)N1CCCC[C@H](N(C)C)C1`, the cytotoxicity at 70.5 h was 16.9%.
For `NCC1CCCCN1C(=O)Cc1cccc(Br)c1` (stereo not given) the value was -4.6%; for `COc1ccc(Cc2ncc3c(n2)CN(C(=O)CO)C3)cc1`, -6.42%; for `COCCN1CCc2ncnc(-c3ccccc3)c2CC1`, -5.42%.
For `O=C(NCCN1CCCCCC1)c1cccc(Cl)c1Cl` the value was 1.51%; for `CNCC(=O)N1CCCC(c2ccnc(Nc3cnccn3)n2)C1` (stereo not given), -9.17%.
On to `O=C1NCC2(CCCN(C(=O)c3ccc4c(c3)CCO4)C2)O1` (stereo not given), for which the cytotoxicity at 70.5 h was -4.91%.
For `CC(C)Nc1nc(N2CCCC2)nc2c1CN(S(C)(=O)=O)CC2` the value was -1.08%; for `Cc1ccc(OCCCSC2=NCCN2)cc1`, -3.22%.
For `O=C(Cn1cccn1)NCC1CCCN(Cc2ccccc2)C1` (stereo not given) the value was -20.2%; for `O=c1c2ccccc2nc2n1CCC2O` (stereo not given), -12.8%.
As to `CN(Cc1nccn1C)C(=O)c1cccc(CCC(C)(C)O)c1`, the cytotoxicity at 70.5 h was 7.23%.
Turning to `Cc1nn(CC(C)C)c(N(C)C)c1CNCc1ccc2c(c1)OCO2`, the cytotoxicity at 70.5 h is -2.13%.
The value for `O=C(NC[C@]12COC[C@H]1CN(Cc1nccs1)C2)c1cscn1` was -3.54%.
For `Cc1cc(Br)oc1C(=O)N1CCCN(CC(N)=O)CC1` the value was -7.35%; for `CN(Cc1c[nH]nc1-c1ccc(F)cc1F)Cc1nccn1C`, 21.7%.
The value for `O=C(CCc1cccnc1)Nc1ccc(OCC2CCOCC2)cc1` was -10.4%; that for `COCC1CN(C(=O)[C@H]2CCCO2)Cc2nnn(CC3CC3)c21` (stereo not given in full) was -5.8%.
On to `CN(C)c1cc(C(=O)N2CCCN(Cc3cscn3)CC2)ccn1`, for which the cytotoxicity at 70.5 h was -8.49%.
For `Cc1nc(CN)cc(NCc2ccccc2-n2cncn2)n1` the value was 25%.
Turning to `CCOC(CC)C(=O)NCc1cccc(N2CCCCC2=O)c1` (stereo not given), the cytotoxicity at 70.5 h was -6.54%.
For `CC(C)(O)CCc1cccc(C(=O)N2CCC[C@H]2C(N)=O)c1` the value was 29.2%; for `Cc1cc2c(=O)n3c(nc2s1)CCN(Cc1cnc(C)n1C)CC3`, -4.27%; for `O=C(NC1CCCC1)c1cc(C2CCCNC2)n[nH]1` (stereo not given), -3.17%.
For `CC(=O)N(Cc1noc(C)n1)C1CCN(Cc2cc(C)on2)C1` (stereo not given) the value was -2.83%; for `Fc1cccc(C(NCc2ncc[nH]2)c2ccccc2)c1` (stereo not given), -3.27%; for `Cc1cc(N2CCC(c3nnc(CN(C)C)n3C3CC3)CC2)ccn1`, 18.3%.
The value for `O=S(=O)(c1cccnc1)N1CCN(CCn2ccnc2)CC1` was -0.387%; that for `CCn1cc(CN(C)S(=O)(=O)c2ccc(NC(C)=O)cc2)cn1` was 26.5%; that for `CC(C)Cn1cc(NC(=O)N2CCOC(c3ccccc3)C2)cn1` (stereo not given) was -4.35%.
In the case of `Cc1noc(C)c1CN1C[C@@H](C(=O)O)[C@H](c2ccccn2)C1`, the cytotoxicity at 70.5 h is -6.58%.
The value for `Cc1cnc(CN(C)C2CCN(CC(=O)Nc3nncs3)C2)o1` (stereo not given) was 17.3%; that for `CCn1c(C)nnc1CN(C)C1CCN(CCc2cccs2)C1` (stereo not given) was 10.5%.
Take `CCOc1c(Br)cc(CNCCc2nnc3n2CCCCC3)cc1OC`: the cytotoxicity at 70.5 h is -10.5%.
`Cn1ccnc1CN1CCC2(CC1)CN(c1cncnc1)C(=O)CO2`: the cytotoxicity at 70.5 h is -3.27%.
The value for `CN(C)c1nccc(C2CN(c3cnccn3)CCO2)n1` (stereo not given) was 13.3%; that for `CCc1nc2n(n1)CC(NCc1cc(OC)c3c(c1)OCO3)CC2` (stereo not given) was 1.22%.
On to `CC(C)Nc1cccc(CNC(=O)N2CCCC2)c1`, for which the cytotoxicity at 70.5 h was -5.5%.
For `Cc1cccc(OCCC(=O)N2CCN(CC(=O)NC3CC3)CC2)c1C` the value was -11.9%; for `N#Cc1cc(F)c(N2CCC(NS(=O)(=O)c3cccs3)CC2)c(F)c1`, -20%.
The value for `CC1CCN(S(=O)(=O)N2Cc3ccccc3C[C@H]2C(N)=O)CC1` was -4.51%.
Take `CSC1=Nc2c(cnn2-c2cccc(Cl)c2)C2=NCCCN12`: the cytotoxicity at 70.5 h is -12%.
For `CC(C)N1CCCCC1c1cc(CO)[nH]n1` (stereo not given) the value was -3.81%.
In the case of `Cc1ccccc1C1(CNC(=O)c2cccc(S(C)(=O)=O)c2)CC1`, the cytotoxicity at 70.5 h is 20.2%.
The value for `COCC(=O)N1CC[C@@H]2O[C@@H](COCC3CCOCC3)CC[C@@H]21` was 12.6%; that for `Cc1cc(CNCc2c(C)nn(C)c2N2CCOCC2)no1` was -4.07%; that for `Cc1nc(COC[C@@H]2CCC[C@@]23CNCCO3)cs1` was 15.5%.
For `CN1CCN(C(=O)CC2CCN(CCc3ccccn3)CC2)CC1` the value was -0.784%; for `CCC(Nc1ncnc2sc(C(=O)O)c(C)c12)c1ccnn1C` (stereo not given), -12.8%; for `Cc1cnccc1CN(C)C(=O)c1ccc(Cn2cnnn2)cc1`, 37.3%.
For `CN1C[C@H]2N(c3ncccn3)CCC[C@@]2(C(=O)NCC2CC2)C1` the value was -6.84%.
Consider `COc1ccc(CN2CCCn3cnc(COCC4CC4)c3C2)cc1`, for which the cytotoxicity at 70.5 h turned out to be 1.46%.
For `CNS(=O)(=O)CC(=O)N1CCC(c2cc3ccccc3[nH]2)CC1` the value was 1.33%; for `Cc1ccc(N2CCC(C(=O)NC3CCc4nccn4C3)CC2)nc1` (stereo not given), -90.5%.
For `O=c1[nH]c(-c2ccc(F)c(F)c2)nc2c1CCNC2`, the cytotoxicity at 70.5 h was -1.92%.
The value for `O=C(NCCn1ccnc1C1CCOC1)c1cccnc1` (stereo not given) was -1.19%; that for `COCC(=O)N(CCC(=O)OC)CC1CCCO1` (stereo not given) was -10.3%.
For `CC1(C)CN(C(=O)c2cnc(-c3ccccn3)nc2)CC[C@]1(C)O` the value was 0.152%; for `Cc1cc(NC(=O)N(Cc2ccc(C#N)cc2)C(C)C)no1`, -13.2%; for `Cc1c(Cl)cccc1S(=O)(=O)N1CCC2(CC1)OCCS2`, -1.11%.
For the compound `CC(NC(=O)CSCC#N)c1cccc(NC(=O)c2ccccc2)c1` (stereo not given), the cytotoxicity at 70.5 h was found to be 10.4%.
The value for `COCc1ccc(C(=O)N2CC[C@@](O)(COC)C(C)(C)C2)o1` was -6.95%; that for `CCc1ccc(CN2CCc3ncnc(-c4cccnc4)c3CC2)o1` was -6.08%; that for `CN(C)C(=O)c1coc(COc2ccccc2)n1` was 15.6%.
For `COc1ccc(-c2cc3nn(CC(=O)NC(C)C)c(=O)n3c(C)n2)cc1` the value was 1.34%; for `CN(C)CCNC(=O)c1ccc2c(-c3nccs3)noc2c1`, -8.08%.
The value for `COCCOCC(=O)NCc1ccc(N(C)C)nc1` was -5.23%.
Consider `CS(=O)(=O)c1ccccc1-n1cc(NC(=O)CC2C=CCC2)cn1` (stereo not given), for which the cytotoxicity at 70.5 h was -6.16%.
With `COc1ccccc1S(=O)(=O)N1CC(N(C)C)Cc2ccccc21` (stereo not given), the cytotoxicity at 70.5 h worked out at 30.7%.
